Experimental data reported in ChEMBL document CHEMBL5053516, “Cinchona Alkaloid-Inspired Urea-Containing Autophagy Inhibitor Shows Single-Agent Anticancer Efficacy” (J Med Chem, 2021).
pIC50: −log10 of the molar value. Active and inactive are the calls of the source. The rule behind the calls is not given here.

What was measured:
[1] = Cytotoxicity against human JHH7 cells assessed as cell viability by MTT assay; assay type: functional, cell-based
Hep 3B2 [2] = experiment: Cytotoxicity against human Hep3B cells assessed as cell viability by MTT assay; assay type: functional, cell-based
[3] = Cytotoxicity against mouse FL83B cells assessed as cell viability by MTT assay; assay type: cell-based
HepG2 = experiment: Cytotoxicity against human HepG2 cells assessed as cell viability by MTT assay; assay type: functional, cell-based
[4] = Cytotoxicity against mouse HCA1 cells assessed as cell viability by MTT assay; assay type: functional, cell-based
Mahlavu [5] = experiment: Cytotoxicity against human Mahlavu cells assessed as cell viability by MTT assay; assay type: functional, cell-based
HCA1 [6] = experiment: Inhibition of autophagy in mouse HCA1 cells assessed as increase in LC3-II measured at 0.1 to 0.5 uM by Western blot analysis; assay type: functional, cell-based; settings: dose 0.1-0.5 µM, time 2-6 hrs, TDE = time-dependent effect
Mahlavu [7] = experiment: Inhibition of autophagy in human Mahlavu cells assessed as increase in LC3-II measured at 0.1 to 0.5 uM by Western blot analysis; assay type: functional, cell-based; settings: dose 0.1-0.5 µM, time 2-6 hrs, TDE = time-dependent effect
Mahlavu [8] = experiment: Inhibition of autophagosome-lysosome fusion in human Mahlavu cells assessed as number of LC3 puncta at 1 uM for 2 hrs by immunofluorescence assay; assay type: functional, cell-based
Mahlavu [9] = experiment: Effect on LC3-I expression in human Mahlavu cells at 0.5 uM by Western blot analysis; assay type: functional, cell-based
Mahlavu [10] = experiment: Reduction in p53 expression in human Mahlavu cells by Western blot analysis; assay type: functional, cell-based
HCA1 [11] = experiment: Effect on LC3-I expression in mouse HCA1 cells at 0.5 uM by Western blot analysis; assay type: functional, cell-based
Hep 3B2 [12] = experiment: Effect on LC3-I expression in human Hep3B cells at 0.5 uM by Western blot analysis; assay type: functional, cell-based
Mahlavu [13] = experiment: Induction of apoptosis in human Mahlavu cells assessed as increase in cleaved caspase 3 measured after 2 hrs by Western blot analysis; assay type: functional, cell-based
HCA1 [14] = experiment: Inhibition of autophagy in mouse HCA1 cells assessed as increase in p62 expression measured after 2 to 6 hrs by Western blot analysis; assay type: functional, cell-based; settings: time 2-6 hrs
HCA1 [15] = experiment: Inhibition of autophagosome-lysosome fusion in mouse HCA1 cells assessed as number of LC3 puncta at 1 uM for 2 hrs by immunofluorescence assay; assay type: functional, cell-based
HCA1 [16] = experiment: Induction of apoptosis in mouse HCA1 cells after 16 hrs using annexin V/PI staining assay; assay type: functional, cell-based
HCA1 [17] = experiment: Inhibition of autophagy in mouse HCA1 cells assessed as increase in p62 expression measured at 0.1 to 0.5 uM by Western blot analysis; assay type: functional, cell-based; settings: dose 0.1-0.5 µM, time 2-6 hrs, TDE = time-dependent effect
Hep 3B2 [18] = experiment: Inhibition of autophagy in human Hep3B cells assessed as increase in LC3-II measured at 0.1 to 0.5 uM by Western blot analysis; assay type: functional, cell-based; settings: dose 0.1-0.5 µM, time 2-6 hrs, TDE = time-dependent effect
Mahlavu [19] = experiment: Downregulation of Akt expression in human Mahlavu cells by Western blot analysis; assay type: functional, cell-based
Mahlavu [20] = experiment: Inhibition of autophagy in human Mahlavu cells assessed as increase in LC3-II measured after 2 to 6 hrs by Western blot analysis; assay type: functional, cell-based; settings: time 2-6 hrs
[21] = molecular target: Serine/threonine-protein kinase AKT (Homo sapiens) (UniProt P31751+Q9Y243+P31749); experiment: Inhibition of Akt phosphorylation in human Hep3B cells by Western blot analysis; assay type: cell-based
Serine/threonine-protein kinase AKT (Homo sapiens), sequence (P31749 whole entry, looked up): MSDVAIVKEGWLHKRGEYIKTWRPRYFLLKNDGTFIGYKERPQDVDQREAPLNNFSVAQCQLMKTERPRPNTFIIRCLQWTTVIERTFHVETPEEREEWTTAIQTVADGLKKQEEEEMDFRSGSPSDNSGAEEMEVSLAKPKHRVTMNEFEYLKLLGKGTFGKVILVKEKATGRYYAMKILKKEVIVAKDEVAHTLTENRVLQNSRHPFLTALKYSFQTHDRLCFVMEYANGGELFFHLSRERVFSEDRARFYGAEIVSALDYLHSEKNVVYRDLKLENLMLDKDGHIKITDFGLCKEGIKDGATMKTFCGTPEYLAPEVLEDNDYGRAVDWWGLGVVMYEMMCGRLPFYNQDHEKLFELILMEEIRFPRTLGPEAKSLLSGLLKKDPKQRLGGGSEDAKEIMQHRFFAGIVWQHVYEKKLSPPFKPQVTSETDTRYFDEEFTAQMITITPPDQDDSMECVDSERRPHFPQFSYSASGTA
Serine/threonine-protein kinase AKT (Homo sapiens), sequence (P31751 whole entry, looked up): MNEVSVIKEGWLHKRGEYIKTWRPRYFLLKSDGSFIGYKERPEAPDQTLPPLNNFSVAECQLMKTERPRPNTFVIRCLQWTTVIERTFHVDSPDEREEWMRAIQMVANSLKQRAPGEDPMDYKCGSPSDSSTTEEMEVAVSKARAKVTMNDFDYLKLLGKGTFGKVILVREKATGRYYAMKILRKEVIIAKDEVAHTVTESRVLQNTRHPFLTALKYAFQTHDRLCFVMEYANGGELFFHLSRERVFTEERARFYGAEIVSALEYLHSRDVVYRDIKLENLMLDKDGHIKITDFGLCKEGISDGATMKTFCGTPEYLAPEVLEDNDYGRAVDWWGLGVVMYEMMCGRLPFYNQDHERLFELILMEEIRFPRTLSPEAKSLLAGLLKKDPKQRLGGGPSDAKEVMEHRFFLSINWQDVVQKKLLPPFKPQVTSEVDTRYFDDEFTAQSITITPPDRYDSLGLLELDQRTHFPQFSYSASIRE
Serine/threonine-protein kinase AKT (Homo sapiens), sequence (Q9Y243 whole entry, looked up): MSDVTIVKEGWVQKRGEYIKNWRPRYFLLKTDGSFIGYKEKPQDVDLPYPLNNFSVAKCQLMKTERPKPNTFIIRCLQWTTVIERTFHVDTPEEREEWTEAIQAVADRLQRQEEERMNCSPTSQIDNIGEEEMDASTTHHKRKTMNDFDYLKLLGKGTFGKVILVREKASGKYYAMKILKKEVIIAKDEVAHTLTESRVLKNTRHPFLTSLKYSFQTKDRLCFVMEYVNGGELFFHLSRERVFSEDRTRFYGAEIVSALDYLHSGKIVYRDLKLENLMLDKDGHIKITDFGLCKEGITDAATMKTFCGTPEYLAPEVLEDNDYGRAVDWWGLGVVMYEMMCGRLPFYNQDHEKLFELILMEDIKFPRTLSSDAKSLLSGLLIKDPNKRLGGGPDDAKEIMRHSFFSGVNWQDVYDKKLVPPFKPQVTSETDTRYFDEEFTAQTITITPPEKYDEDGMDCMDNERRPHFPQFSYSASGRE

Hep 3B2 [22] = experiment: Inhibition of autophagy in human Hep3B cells assessed as increase in p62 expression measured at 0.1 to 0.5 uM by Western blot analysis; assay type: functional, cell-based; settings: dose 0.1-0.5 µM, time 2-6 hrs, TDE = time-dependent effect
Mahlavu [23] = experiment: Reduction in Bcl-xL expression in human Mahlavu cells by Western blot analysis; assay type: functional, cell-based
HCA1 [24] = experiment: Reduction in Bcl-xL expression in mouse HCA1 cells by Western blot analysis; assay type: functional, cell-based
HCA1 [25] = experiment: Inhibition of autophagy in mouse HCA1 cells assessed as increase in LC3-II measured after 2 to 6 hrs by Western blot analysis; assay type: functional, cell-based; settings: time 2-6 hrs
HCA1 [26] = experiment: Downregulation of Akt expression in mouse HCA1 cells by Western blot analysis; assay type: functional, cell-based
HCA1 [27] = experiment: Induction of apoptosis in mouse HCA1 cells assessed as increase in cleaved caspase 3 measured after 2 hrs by Western blot analysis; assay type: functional, cell-based
Hep 3B2 [28] = experiment: Inhibition of autophagy in human Hep3B cells assessed as increase in p62 expression measured after 2 to 6 hrs by Western blot analysis; assay type: functional, cell-based; settings: time 2-6 hrs
Mahlavu [29] = experiment: Inhibition of autophagy in human Mahlavu cells assessed as increase in p62 expression measured at 0.1 to 0.5 uM by Western blot analysis; assay type: functional, cell-based; settings: dose 0.1-0.5 µM, time 2-6 hrs, TDE = time-dependent effect
Mahlavu [30] = experiment: Inhibition of autophagy in human Mahlavu cells assessed as increase in p62 expression measured after 2 to 6 hrs by Western blot analysis; assay type: functional, cell-based; settings: time 2-6 hrs
Hep 3B2 [31] = experiment: Inhibition of autophagy in human Hep3B cells assessed as increase in LC3-II measured after 2 to 6 hrs by Western blot analysis; assay type: functional, cell-based; settings: time 2-6 hrs
Mahlavu [32] = experiment: Induction of apoptosis in human Mahlavu cells after 16 hrs using annexin V/PI staining assay; assay type: functional, cell-based

In the case of `CCN(CC)CCCC(C)Nc1ccnc2cc(Cl)ccc12` (centres undefined) [CHLOROQUINE], the pIC50 [1] was < 5.00, the pIC50 (Hep 3B2 [2]) was < 5.00 and the pIC50 [3] was < 5.00. For the same compound, the pIC50 (HepG2) was < 5.00, the pIC50 [4] was < 5.00 and the pIC50 (Mahlavu [5]) was < 5.00.

In the case of `C=CC1CN2CCC1CC2[C@@H](NC(=O)Nc1ccc(F)cc1)c1ccnc2ccc(OC)cc12` (some centres undefined), the pIC50 [1] was < 5.00, the pIC50 (Hep 3B2 [2]) was 5.70 and the pIC50 [3] was 5.41. The pIC50 (HepG2) was 5.23, the pIC50 [4] was 5.55 and the pIC50 (Mahlavu [5]) was 5.44.

`C=CC1CN2CCC1CC2[C@@H](NC(=O)Nc1ccc(C(F)(F)F)cc1)c1ccnc2ccc(OC)cc12` (some centres undefined) showed a pIC50 [1] of 6.38, a pIC50 (Hep 3B2 [2]) of 6.23 and a pIC50 [3] of 6.10. The pIC50 (HepG2) was 5.97, the pIC50 [4] was 6.21 and the pIC50 (Mahlavu [5]) was 6.22.

For `C=CC1CN2CCC1C[C@H]2[C@@H](NC(=O)Nc1ccc(OC)cc1)c1ccnc2ccc(OC)cc12` (some centres undefined), the pIC50 [1] was < 5.00, the pIC50 (Hep 3B2 [2]) was 5.00 and the pIC50 [3] was < 5.00. For the same compound, the pIC50 (HepG2) was 5.02, the pIC50 [4] was 5.23 and the pIC50 (Mahlavu [5]) was 5.20.

With `C=CC1CN2CCC1CC2[C@@H](NC(=O)Nc1ccccc1)c1ccnc2ccc(OC)cc12` (some centres undefined) the pIC50 [1] was < 5.00, the pIC50 (Hep 3B2 [2]) was < 5.00 and the pIC50 [3] was < 5.00. The pIC50 (HepG2) was 5.06, the pIC50 [4] was < 5.00 and the pIC50 (Mahlavu [5]) was 5.40.

In the case of `C=CC1CN2CCC1C[C@H]2[C@@H](NC(=O)Nc1ccccc1C(F)(F)F)c1ccnc2ccc(OC)cc12` (some centres undefined), the pIC50 [1] was < 5.00, the pIC50 (Hep 3B2 [2]) was 5.52 and the pIC50 [3] was < 5.00. The pIC50 (HepG2) was < 5.00, the pIC50 [4] was 5.24 and the pIC50 (Mahlavu [5]) was 5.19.

For `C=CC1CN2CCC1CC2[C@@H](NC(=O)Nc1cc(C(F)(F)F)cc(C(F)(F)F)c1)c1ccnc2ccc(OC)cc12` (some centres undefined), the Activity (HCA1 [6]) was “Tde”, the Activity (Mahlavu [7]) was “Tde” and the pIC50 [1] was 6.57. For the same compound, the Activity (Mahlavu [8]) was “Active”, the Activity (Mahlavu [9]) was “inactive” and the Activity (Mahlavu [10]) was “Active”. The Activity (HCA1 [11]) was “Active”, the Activity (Hep 3B2 [12]) was “inactive” and the Activity (Mahlavu [13]) was “Active”. The Activity (HCA1 [14]) was “Dose-dependent effect”, the Activity (HCA1 [15]) was “Active” and the Activity (HCA1 [16]) was “Dose-dependent effect”. The Activity (HCA1 [17]) was “Tde”, the Activity (Hep 3B2 [18]) was “Tde” and the Activity (Mahlavu [19]) was “Active”. For the same compound, the Activity (Mahlavu [20]) was “Dose-dependent effect”, the pIC50 (Hep 3B2 [2]) was 6.57 and the inhibition [21] was “Active”. For the same compound, the Activity (Hep 3B2 [22]) was “Tde”, the pIC50 [3] was 6.14 and the Activity (Mahlavu [23]) was “Active”. The Activity (HCA1 [24]) was “Active”, the pIC50 (HepG2) was 6.16 and the Activity (HCA1 [25]) was “Dose-dependent effect”. For the same compound, the Activity (HCA1 [26]) was “Active”, the Activity (HCA1 [27]) was “Active” and the Activity (Hep 3B2 [28]) was “Dose-dependent effect”. The Activity (Mahlavu [29]) was “Tde”, the Activity (Mahlavu [30]) was “Dose-dependent effect” and the pIC50 [4] was 6.64. For the same compound, the pIC50 (Mahlavu [5]) was 6.89, the Activity (Hep 3B2 [31]) was “Dose-dependent effect” and the Activity (Mahlavu [32]) was “Dose-dependent effect”.

Work on `C=CC1CN2CCC1C[C@H]2[C@@H](NC(=O)Nc1cc(OC)cc(OC)c1)c1ccnc2ccc(OC)cc12` (some centres undefined) yielded a pIC50 [1] of 5.23, a pIC50 (Hep 3B2 [2]) of 5.45 and a pIC50 [3] of 5.07. For the same compound, the pIC50 (HepG2) was 5.29, the pIC50 [4] was 5.65 and the pIC50 (Mahlavu [5]) was 5.42.

With `C=CC1CN2CCC1C[C@H]2[C@@H](NC(=O)Nc1cccc(C(F)(F)F)c1)c1ccnc2ccc(OC)cc12` (some centres undefined) the pIC50 [1] was 5.19, the pIC50 (Hep 3B2 [2]) was 5.79 and the pIC50 [3] was < 5.00. For the same compound, the pIC50 (HepG2) was < 5.00, the pIC50 [4] was 5.83 and the pIC50 (Mahlavu [5]) was 5.21.

For `C=CC1CN2CCC1C[C@H]2[C@@H](NC(=O)Nc1cc(C)cc(C)c1)c1ccnc2ccc(OC)cc12` (some centres undefined), the pIC50 [1] was 5.14, the pIC50 (Hep 3B2 [2]) was 5.29 and the pIC50 [3] was < 5.00. The pIC50 (HepG2) was 5.29, the pIC50 [4] was < 5.00 and the pIC50 (Mahlavu [5]) was < 5.00.

With `C=CC1CN2CCC1CC2[C@H](NC(=O)Nc1cc(C(F)(F)F)cc(C(F)(F)F)c1)c1ccnc2ccc(OC)cc12` (some centres undefined) the pIC50 [1] was 6.22, the pIC50 (Hep 3B2 [2]) was 6.42 and the pIC50 [3] was 6.04. The pIC50 (HepG2) was 6.16, the pIC50 [4] was 6.38 and the pIC50 (Mahlavu [5]) was 6.21.

`C=CC1CN2CCC1CC2[C@@H](NC(=S)Nc1cc(C(F)(F)F)cc(C(F)(F)F)c1)c1ccnc2ccc(OC)cc12` (some centres undefined) gave a pIC50 [1] of 6.47, a pIC50 (Hep 3B2 [2]) of 6.54 and a pIC50 [3] of 6.11. It also gave a pIC50 (HepG2) of 6.11, a pIC50 [4] of 6.43 and a pIC50 (Mahlavu [5]) of 6.55.
